Here are results for 34 molecules from US7560468B2, “Substituted 1,4,8-triazaspiro[4,5]decan-2-one compounds” (Gruenenthal GmbH, priority 2004, dated 2009).

T1 sequence (P31652 whole entry): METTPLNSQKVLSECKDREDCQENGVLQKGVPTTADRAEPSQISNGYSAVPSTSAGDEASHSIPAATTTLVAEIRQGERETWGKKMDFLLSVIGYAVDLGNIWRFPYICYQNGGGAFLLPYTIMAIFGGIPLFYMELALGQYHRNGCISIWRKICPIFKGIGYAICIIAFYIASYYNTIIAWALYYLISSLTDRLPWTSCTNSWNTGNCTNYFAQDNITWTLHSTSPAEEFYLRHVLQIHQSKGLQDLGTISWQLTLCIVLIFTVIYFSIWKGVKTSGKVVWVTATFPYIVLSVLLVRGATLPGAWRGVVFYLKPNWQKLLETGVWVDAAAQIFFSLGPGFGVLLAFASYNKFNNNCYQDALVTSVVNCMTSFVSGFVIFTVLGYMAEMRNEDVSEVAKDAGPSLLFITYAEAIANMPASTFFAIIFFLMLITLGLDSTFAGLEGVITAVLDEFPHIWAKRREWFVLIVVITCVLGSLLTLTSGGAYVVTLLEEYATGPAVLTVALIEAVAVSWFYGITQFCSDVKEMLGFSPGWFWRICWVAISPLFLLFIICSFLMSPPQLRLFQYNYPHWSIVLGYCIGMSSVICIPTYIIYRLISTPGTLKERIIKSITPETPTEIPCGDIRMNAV

For one assay, the system named is batrachotoxin (BTX) binding site of the sodium channel. Description: Affinity to the batrachotoxin (BTX) binding site of the sodium channel. The settings on record: rat cerebrocortex synaptosomes, [3H]-batrachotoxinin A20 α-benzoate 10 nM; test concentration not given.
Consider `COC(=O)c1ccc(CN2C(=O)C(C(C)C)NC23CCN(C(=O)NCc2ccc(Cl)c(Cl)c2)CC3)cc1` (stereo not shown) [Example 232, Methyl 4-[8-(3,4-dichlorobenzylcarbamoyl)-3-isopropyl-2-oxo-1,4,8-triazaspiro[4,5]dec-1-ylmethyl]-benzoate], for which the “BTX Inhibition” value was determined as 55.
With “Methyl 4-[8-(2,6-dichlorobenzolthiocarbamoyl)-3-isopropyl-2-oxo-1,4,8-triazaspiro[4,5]dec-1-ylmethyl]-benzoate [Example 135]”, the “BTX Inhibition” value came to 38.
The same measure, in the same setting: in the case of `CCCCN1C(=O)C(C(C)C)NC12CCN(S(=O)(=O)c1ccc(F)cc1F)CC2` (stereo not shown) [Example 19, 1-Butyl-8-(2,4-difluorobenzolsulfonyl)-3-isopropyl-1,4,8-triazaspiro[4,5]decan-2-one] it was 30; in that of “1-Methyl-3-(2-methylsulfanylethyl)-2-oxo-1,4,8-triazaspiro[4,5]decan-8-thiocarboxylic acid (3-trifluoromethylbenzol)amide [Example 194]”, 36.
The same measure, in the same setting: in the case of `COc1ccc(CNC(=S)N2CCC3(CC2)NC(CCSC)C(=O)N3C)cc1` (stereo not shown) [Example 111, 1-Methyl-3-(2-methylsulfanylethyl)-2-oxo-1,4,8-triazaspiro[4,5]decan-8-thiocarboxylic acid 4-methoxy-benzylamide] it was 51; in that of `CN1C(=O)C(Cc2ccccc2)NC12CCN(C(=S)NCc1cc(F)ccc1F)CC2` (stereo not shown) [Example 118, 3-Benzyl-1-methyl-2-oxo-1,4,8-triazaspiro[4,5]decan-8-thiocarboxylic acid (2,5-difluorobenzol)amide], 42.
With `CSCCC1NC2(CCN(C(=O)NCc3ccc(Cl)c(Cl)c3)CC2)N(Cc2ccc(F)cc2)C1=O` (stereo not shown) [Example 228, 1-(4-Fluorobenzyl)-3-(2-methylsulfanylethyl)-2-oxo-1,4,8-triazaspiro[4,5]decan-8-carboxylic acid 3,4-dichlorobenzylamide], the “BTX Inhibition” value is listed as 87.
Same read-out and setting: under `CC(C)C1NC2(CCN(S(=O)(=O)c3ccc(F)c(Cl)c3)CC2)N(CCOc2ccccc2)C1=O` (stereo not shown) [Example 17, 8-(3-Chloro-4-fluorobenzolsulfonyl)-3-isopropyl-1-(2-phenoxy-ethyl)-1,4,8-triazaspiro[4,5]decan-2-one] stands 41; under `COc1ccc(S(=O)(=O)N2CCC3(CC2)NCC(=O)N3Cc2ccccc2F)cc1` [Example 64, 1-(2-Fluorobenzyl)-8-(4-methoxy-benzolsulfonyl)-1,4,8-triazaspiro[4,5]decan-2-one], 42.
The same measure, in the same setting: in the case of `CCCCN1C(=O)C(CCSC)NC12CCN(C(=S)NCc1ccccc1OC)CC2` (stereo not shown) [Example 127, 1-Butyl-3-(2-methylsulfanylethyl)-2-oxo-1,4,8-triazaspiro[4,5]decan-8-thiocarboxylic acid (2-methoxy-benzol)amide] it was 44.
On the same count and under the same terms, in the case of `CSCCC1NC2(CCN(C(=S)NC(C)c3ccccc3)CC2)N(Cc2ccc(F)cc2)C1=O` (stereo not shown) [Example 196, 1-(4-Fluorobenzyl)-3-(2-methylsulfanylethyl)-2-oxo-1,4,8-triazaspiro[4,5]decan-8-thiocarboxylic acid (1-benzol-ethyl)amide] it was 70; in that of `CSCCC1NC2(CCN(C(=S)NCc3ccc(Cl)cc3)CC2)N(Cc2cccc(C#N)c2)C1=O` (stereo not shown) [Example 185, 1-(3-Cyanobenzyl)-3-(2-methylsulfanylethyl)-2-oxo-1,4,8-triazaspiro[4,5]decan-8-thiocarboxylic acid 4-chlorobenzylamide], 72.
`CC(C)CC1NC2(CCN(C(=O)Nc3cc(F)ccc3F)CC2)N(Cc2ccccc2C#N)C1=O` (stereo not shown) [Example 218, 1-(2-Cyanobenzyl)-3-isobutyl-2-oxo-1,4,8-triazaspiro[4,5]decan-8-carboxylic acid (2,5-difluorobenzol)amide]: the “BTX Inhibition” value was 40.
Still for that read-out and setting: under `CSCCC1NC2(CCN(C(=S)NCc3ccc(F)cc3)CC2)N(C)C1=O` (stereo not shown) [Example 134, 1-Methyl-3-(2-methylsulfanylethyl)-2-oxo-1,4,8-triazaspiro[4,5]decan-8-thiocarboxylic acid 4-fluorobenzylamide] stands 50; under `C=CCNC(=S)N1CCC2(CC1)NC(C(C)C)C(=O)N2Cc1ccc(C(=O)OC)cc1` (stereo not shown) [Example 126, Methyl 4-(8-allylthiocarbamoyl-3-isopropyl-2-oxo-1,4,8-triazaspiro[4,5]dec-1-ylmethyl)benzoate], 37.

A further assay has as its target T1, 5-HT transporter (Rattus norvegicus, UniProt P31652).
T1 construct: from tissue; host or cells: rat brain synaptosomes (marrow/medulla and pons), P2 fraction
Description: Inhibition of 5-HT uptake in synaptosomes. The note with it: rat, 1 μM. Type of assay: biochemical.
As to `CCCCN1C(=O)C(CCSC)NC12CCN(S(=O)(=O)c1ccc(C(C)=O)cc1)CC2` (stereo not shown) [Example 13, 8-(4-Acetylbenzolsulfonyl)-1-butyl-3-(2-methylsulfanylethyl)-1,4,8-triazaspiro[4,5]decan-2-one], the “Uptake_5-HT, rat, 1 μM, % inhibition” value is recorded as 56%.
On to `CSCCC1NC2(CCN(C(=O)Nc3cccc(F)c3)CC2)N(Cc2ccccc2C#N)C1=O` (stereo not shown) [Example 226, 1-(2-Cyanobenzyl)-3-(2-methylsulfanylethyl)-2-oxo-1,4,8-triazaspiro[4,5]decan-8-carboxylic acid (3-fluorobenzol)amide], for which the “Uptake_5-HT, rat, 1 μM, % inhibition” value worked out at 55%.
On the same count and under the same terms, under `CCC(C)(C)c1ccc(S(=O)(=O)N2CCC3(CC2)NC(CCSC)C(=O)N3Cc2ccccc2)cc1` (stereo not shown) [Example 41, 1-Benzyl-8-[4-(1,1-dimethylpropyl)benzolesulfonyl]-3-(2-methylsulfanylethyl)-1,4,8-triazaspiro[4,5]decan-2-one] stands 56%.
On the same count and under the same terms, under `CN1C(=O)C(Cc2ccccc2)NC12CCN(S(=O)(=O)c1cccc(Cl)c1)CC2` (stereo not shown) [Example 40, 3-Benzyl-8-(3-chlorobenzolsulfonyl)-1-methyl-1,4,8-triazaspiro[4,5]decan-2-one] stands 57%; under `CC(C)C1NC2(CCN(S(=O)(=O)c3ccc([N+](=O)[O-])cc3)CC2)NC1=O` (stereo not shown) [Example 1, 3-Isopropyl-8-(4-nitrobenzolsulfonyl)-1,4,8-triazaspiro[4,5]decan-2-one], 55%; under `CC(C)C1NC2(CCN(S(=O)(=O)c3ccc([N+](=O)[O-])cc3)CC2)N(Cc2cccc(C#N)c2)C1=O` (stereo not shown) [Example 52, 3-[3-Isopropyl-8-(4-nitrobenzolsulfonyl)-2-oxo-1,4,8-triazaspiro[4,5]dec-1-ylmethyl]-benzonitrile], 53%.
As to `C=CCN1C(=O)C(CCSC)NC12CCN(S(=O)(=O)Cc1ccccc1)CC2` (stereo not shown) [Example 58, 1-Allyl-3-(2-methylsulfanylethyl)-8-benzolmethansulfonyl-1,4,8-triazaspiro[4,5]decan-2-one], the “Uptake_5-HT, rat, 1 μM, % inhibition” value amounted to 56%.
Same read-out and setting: in the case of `CCCCN1C(=O)C(CCSC)NC12CCN(S(=O)(=O)c1ccc(OC)c(OC)c1)CC2` (stereo not shown) [Example 30, 1-Butyl-8-(3,4-dimethoxy-benzolsulfonyl)-3-(2-methylsulfanylethyl)-1,4,8-triazaspiro[4,5]decan-2-one] it was 53%; in that of `C=CCN1C(=O)C(C(C)C)NC12CCN(C(=S)Nc1c(F)c(F)c(F)c(F)c1F)CC2` (stereo not shown) [Example 149, 1-Allyl-3-isopropyl-2-oxo-1,4,8-triazaspiro[4,5]decan-8-thiocarboxylic acid pentafluorobenzolamide-amide], 55%.
Same read-out and setting: in the case of `C=CCN1C(=O)C(C(C)C)NC12CCN(C(=S)Nc1ccc(F)cc1)CC2` (stereo not shown) [Example 125, 1-Allyl-3-isopropyl-2-oxo-1,4,8-triazaspiro[4,5]decan-8-thiocarboxylic acid (4-fluorobenzol)amide] it was 34%.

Still in this assay, the particulars now being: read-out: 5-HT uptake: Km; characteristic data of the 5-HT transporter.
A word on the Km: it is the substrate concentration at which the rate is half of its maximum. For `NCCc1c[nH]c2ccc(O)cc12` [Example 5-HT, serotonin, reference compound], the Km was found to be 0.084 ± 0.011 µM.

Staying with this assay, now noted: read-out: Uptake_5-HT, rat, 1 μM, % inhibition.
A word on the inhibition: it is the share of the control response that was lost under treatment. In the case of `CCCCN1C(=O)C(CCSC)NC12CCN(S(=O)(=O)c1ccc(Cl)s1)CC2` (stereo not shown) [Example 12, 1-Butyl-8-(5-chlorothiophen-2-sulfonyl)-3-(2-methylsulfanylethyl)-1,4,8-triazaspiro[4,5]decan-2-one], the inhibition at 1 µM was determined as 58%.
On the same count and under the same terms, in the case of `CC(C)NC(=S)N1CCC2(CC1)NC(=O)C(Cc1ccccc1)N2` (stereo not shown) [Example 103, 2-Benzyl-3-oxo-1,4,8-triazaspiro[4,5]decan-8-thiocarboxylic acid isopropylamide] it was 41%.
The same measure, in the same setting: in the case of `COC(=O)c1ccccc1S(=O)(=O)N1CCC2(CC1)NC(CCSC)C(=O)N2Cc1ccccc1C#N` (stereo not shown) [Example 38, Methyl 2-[1-(2-cyanobenzyl)-3-(2-methylsulfanylethyl)-2-oxo-1,4,8-triazaspiro[4,5]decan-8-sulfonyl]-benzoate] it was 40%; in that of `CSCCC1NC2(CCN(C(=S)NC(C)C)CC2)N(Cc2ccc(F)cc2)C1=O` (stereo not shown) [Example 176, 1-(4-Fluorobenzyl)-3-(2-methylsulfanylethyl)-2-oxo-1,4,8-triazaspiro[4,5]decan-8-thiocarboxylic acid isopropylamide], 32%.
On the same count and under the same terms, under `CCCCS(=O)(=O)N1CCC2(CC1)NC(Cc1ccccc1)C(=O)N2CC(=O)OCC` (stereo not shown) [Example 62, Ethyl[3-benzyl-8-(butan-1-sulfonyl)-2-oxo-1,4,8-triazaspiro[4,5]dec-1-yl]-acetate] stands 70%; under `CCS(=O)(=O)N1CCC2(CC1)NC(CCSC)C(=O)N2Cc1ccccc1` (stereo not shown) [Example 32, 1-Benzyl-8-ethanesulfonyl-3-(2-methylsulfanylethyl)-1,4,8-triazaspiro[4,5]decan-2-one], 64%; under `CCOC(=O)CN1C(=O)C(Cc2ccccc2)NC12CCN(C(=S)NC(=O)OCC)CC2` (stereo not shown) [Example 144, Ethyl(3-benzyl-8-ethoxycarbonylaminocarbothioyl-2-oxo-1,4,8-triazaspiro[4,5]dec-1-yl)acetate], 47%.
As to `CN(C)S(=O)(=O)N1CCC2(CC1)NCC(=O)N2Cc1ccccc1F` [Example 55, 1-(2-Fluorobenzyl)-2-oxo-1,4,8-triazaspiro[4,5]decan-8-sulfonic acid dimethylamide], the inhibition at 1 µM amounted to 57%.
